Measured values from PMC6199744, “Development of Chemical Proteomics for the Folateome and Analysis of the Kinetoplastid Folateome” (ACS Infectious Diseases, 2018).
Where two headings read alike, the source gives them in different places.

Tested on: T. brucei lysate proteins
Format: binding, Trypanosoma brucei

For `CCCCCCOc1cccc(Cc2cnc(N)nc2N)c1` [compound 2], the fold change (relative to vehicle control = 1, protein TB09.160.3270 ATP-DEPENDENT DEAD BOX HELICASE, PUTATIVE) was 1, the fold change (relative to vehicle control = 1, protein TB09.160.4250 TR[…]) was 0.99 and the fold change (relative to vehicle control = 1, protein TB09.211.3540 GLYCEROL KINASE, GLYCOSOMAL) was 0.98. For the same compound, the fold change (relative to vehicle control = 1, protein TB11.01.1290 14-3-3-I PROTEIN) was 0.88, the fold change (relative to vehicle control = 1, protein TB11.02.0730 METACASPASE) was 1.1 and the fold change (relative to vehicle control = 1, protein TB11.02.4700 14-3-3 PROTEIN) was 1. It also gave a fold change (relative to vehicle control = 1, protein TB11.03.0815 DYNEIN LIGHT CHAIN) of 0.94, a fold change (relative to vehicle control = 1, protein TB11.50.0007 DYNEIN LIGHT CHAIN LC8, PUTATIVE) of 0.99 and a fold change (relative to vehicle control = 1, protein TB427TMP.01.1830 HY[…], CONSERVED) of 1. For the same compound, the fold change (relative to vehicle control = 1, protein TB427TMP.01.6880 CYTOSOLIC COAT PROTEIN, PUTATIVE) was 1, the fold change (relative to vehicle control = 1, protein TB427TMP.01.7490 HY[…], CONSERVED) was 0.96 and the fold change (relative to vehicle control = 1, protein TB427TMP.01.7530 HY[…], CONSERVED) was 0.98. For the same compound, the fold change (relative to vehicle control = 1, protein TB427TMP.02.1460 HY[…], CONSERVED) was 0.95, the fold change (relative to vehicle control = 1, protein TB427TMP.02.2120 NUCLEOPORIN 48) was 0.94 and the fold change (relative to vehicle control = 1, protein TB427TMP.02.2970 KINESIN, PUTATIVE) was 0.89. It also gave a fold change (relative to vehicle control = 1, protein TB427TMP.02.3120 MALIC ENZYME, PUTATIVE) of 0.98, a fold change (relative to vehicle control = 1, protein TB427TMP.02.4550 HY[…], CONSERVED) of 0.99 and a fold change (relative to vehicle control = 1, protein TB427TMP.02.5450 GLUCOSE-REGULATED PROTEIN 78, PUTATIVE) of 0.98. For the same compound, the fold change (relative to vehicle control = 1, protein TB427TMP.02.5660 HY[…], CONSERVED) was 0.85, the fold change (relative to vehicle control = 1, protein TB427TMP.03.0090 RIBOKINASE, PUTATIVE) was 0.93 and the fold change (relative to vehicle control = 1, protein TB427TMP.03.0460 HY[…], CONSERVED) was 0.99. It also gave a fold change (relative to vehicle control = 1, protein TB427TMP.160.4770 PROTEIN KINASE, PUTATIVE) of 1, a fold change (relative to vehicle control = 1, protein TB427TMP.160.4910 FLAVOPROTEIN MONOOXYGENASE, PUTATIVE) of 0.93 and a fold change (relative to vehicle control = 1, protein TB427TMP.18.0005 HY[…], CONSERVED) of 0.95. The fold change (relative to vehicle control = 1, protein TB427TMP.39.0006 T[…] EIF2B DELTA SUBUNIT, PUTATIVE) was 0.96, the fold change (relative to vehicle control = 1, protein TB427.01.4050 PROTEIN P[…] EF-HAND DOMAINS (PPEF)) was 0.95 and the fold change (relative to vehicle control = 1, protein TB427.03.3160 POLY(A) POLYMERASE) was 0.78. For the same compound, the fold change (relative to vehicle control = 1, protein TB427.03.3560 HY[…], CONSERVED) was 0.98, the fold change (relative to vehicle control = 1, protein TB427.03.5420 PROTEIN TRANSPORT PROTEIN SEC24) was 0.94 and the fold change (relative to vehicle control = 1, protein TB427.04.1510 PHOSPHOLIPID-TRA[…], PUTATIVE) was 0.93. For the same compound, the fold change (relative to vehicle control = 1, protein TB427.05.1320 HY[…], CONSERVED) was 0.93, the fold change (relative to vehicle control = 1, protein TB427.05.2320 HY[…], CONSERVED) was 0.8 and the fold change (relative to vehicle control = 1, protein TB427.05.300 THYMINE-7-HYDROXYLASE, PUTATIVE) was 0.92. For the same compound, the fold change (relative to vehicle control = 1, protein TB427.05.3800 GLUTAMINE HYDROLYSING (NOT AMMONIA-DEPENDENT) […] PHOSPHATE SYNTHASE, PUTATIVE) was 0.85, the fold change (relative to vehicle control = 1, protein TB427.06.2550 RNA-BINDING PROTEIN, PUTATIVE) was 0.84 and the fold change (relative to vehicle control = 1, protein TB427.06.3650 ADP-RI[…], PUTATIVE) was 0.97. It also gave a fold change (relative to vehicle control = 1, protein TB427.06.3860 HY[…], CONSERVED) of 0.94, a fold change (relative to vehicle control = 1, protein TB427.07.2570 MRNA […], PUTATIVE) of 0.89 and a fold change (relative to vehicle control = 1, protein TB427.08.3150 T-COMPLEX PROTEIN 1, GAMMA SUBUNIT, PUTATIVE) of 0.92. It also gave a fold change (relative to vehicle control = 1, protein TB427.08.3490 HY[…], CONSERVED) of 1.2, a fold change (relative to vehicle control = 1, protein TB427.08.5460 FLAGELLAR CALCIUM-BINDING PROTEIN) of 0.93 and a fold change (relative to vehicle control = 1, protein TB427.08.5760 HY[…], CONSERVED) of 0.96. The fold change (relative to vehicle control = 1, protein TB427.08.6110 HY[…], CONSERVED) was 0.87, the fold change (relative to vehicle control = 1, protein TB427.10.11930 NAD OR NADP DEPENDENT OXIDOREDUCTASE, PUTATIVE) was 0.92 and the fold change (relative to vehicle control = 1, protein TB427.10.13880 HY[…], CONSERVED) was 0.96. It also gave a fold change (relative to vehicle control = 1, protein TB427.10.14140 PYRUVATE KINASE 1) of 1.1, a fold change (relative to vehicle control = 1, protein TB427.10.14910 SA[…] GLYCOPROTEIN, PUTATIVE) of 0.99 and a fold change (relative to vehicle control = 1, protein TB427.10.15180 […] PROTEIN, PUTATIVE) of 0.88. The fold change (relative to vehicle control = 1, protein TB427.10.2350 PYRUVATE DEH[…] E3 BINDING PROTEIN, PUTATIVE) was 0.77, the fold change (relative to vehicle control = 1, protein TB427.10.4940 NUCLEAR DBF2-RELATED KINASE) was 1 and the fold change (relative to vehicle control = 1, protein TB427.10.7630 HY[…], CONSERVED) was 1. The fold change (relative to vehicle control = 1, protein TB927.10.12840 MIT[…] PROTEIN, PUTATIVE) was 0.98, the fold change (relative to vehicle control = 1, protein TB927.10.14980 INTR[…] PROTEIN IFT52, PUTATIVE) was 0.98 and the fold change (relative to vehicle control = 1, protein TB927.1.2400 ALPHA TUBULIN) was 1. For the same compound, the fold change (relative to vehicle control = 1, protein TB927.10.4180 TFIIF-[…] PHOSPHATASE, PUTATIVE) was 0.94, the fold change (relative to vehicle control = 1, protein TB927.10.5330 40S RIBOSOMAL PROTEIN S18, PUTATIVE) was 0.96 and the fold change (relative to vehicle control = 1, protein TB927.10.6670 DYNEIN LIGHT CHAIN, PUTATIVE) was 0.94. For the same compound, the fold change (relative to vehicle control = 1, protein TB927.2.2440 […]-ATPASE SUBUNIT 6) was 1.1, the fold change (relative to vehicle control = 1, protein TB927.3.1120 GTP-BINDING NUCLEAR PROTEIN RTB2, PUTATIVE) was 0.95 and the fold change (relative to vehicle control = 1, protein TB927.3.3490 HIGH MOBILITY GROUP PROTEIN, PUTATIVE) was 0.99. The fold change (relative to vehicle control = 1, protein TB927.4.4650 […] SYNTHASE, PUTATIVE) was 0.56, the fold change (relative to vehicle control = 1, protein TB927.4.5310 SERINE/THREONINE-PROTEIN KINASE A, PUTATIVE) was 0.97 and the fold change (relative to vehicle control = 1, protein TB927.5.1930 HY[…], CONSERVED) was 0.99. For the same compound, the fold change (relative to vehicle control = 1, protein TB927.6.2200 HY[…], CONSERVED) was 0.99, the fold change (relative to vehicle control = 1, protein TB927.6.4140 PAR[…] COMPONENT, PUTATIVE) was 0.94 and the fold change (relative to vehicle control = 1, protein TB927.7.2700 NADH-CYTOCHROME B5 REDUCTASE, PUTATIVE) was 0.78. For the same compound, the fold change (relative to vehicle control = 1, protein TB927.7.4480 ADENOSINE 5'-[…], PUTATIVE) was 0.99, the fold change (relative to vehicle control = 1, protein TB927.8.1510 ATP-DEPENDENT DEAD/H RNA HELICASE, PUTATIVE) was 0.99 and the fold change (vs vehicle control, protein ADENOSINE TRANSPORTER 1 (CZT00028614.1)) was 1.29. It also gave a fold change (vs vehicle control, protein TB11.01.4370 HY[…], CONSERVED) of 0.99, a fold change (vs vehicle control, protein TB11.02.1220 […] SUBUNIT 2) of 0.97 and a fold change (vs vehicle control, protein TB427TMP.01.1540 HY[…], CONSERVED) of 1.1. It also gave a fold change (vs vehicle control, protein TB427TMP.01.5690 DRBD4) of 0.99, a fold change (vs vehicle control, protein TB427TMP.01.8510 T-COMPLEX PROTEIN 1, ALPHA SUBUNIT, PUTATIVE) of 0.81 and a fold change (vs vehicle control, protein TB427TMP.02.5620 Tb427tmp.02.5620) of 0.97. The fold change (vs vehicle control, protein TB427TMP.160.4240 […] PROTEIN-LIKE PROTEIN) was 0.98, the fold change (vs vehicle control, protein TB427TMP.211.2730 GIM5A PROTEIN) was 1.45 and the fold change (vs vehicle control, protein TB427.03.4910 SIGNAL PEPTIDE PEPTIDASE, PUTATIVE) was 1. It also gave a fold change (vs vehicle control, protein TB427.05.2890 HY[…], CONSERVED) of 0.9, a fold change (vs vehicle control, protein TB427.05.3170 RIBOSE-PHOSPHATE PYROPHOSPHOKINASE, PUTATIVE) of 1.2 and a fold change (vs vehicle control, protein TB427.06.3630 SPHINGOSINE 1-PHOSPHATE LYASE, PUTATIVE) of 0.97. The fold change (vs vehicle control, protein TB427.06.4770 HY[…], CONSERVED) was 1, the fold change (vs vehicle control, protein TB427.08.550 PEPTIDE […] REDUCTASE, PUTATIVE) was 0.93 and the fold change (vs vehicle control, protein TB427.10.1170 INTR[…] PROTEIN IFT172, PUTATIVE) was 0.83. The fold change (vs vehicle control, protein TB427.10.13660 HY[…], CONSERVED) was 0.93, the fold change (vs vehicle control, protein TB427.10.14550 ATP-DEPENDENT DEAD/H RNA HELICASE, PUTATIVE) was 1.1 and the fold change (vs vehicle control, protein TB427.10.1510 NOT1) was 0.9. For the same compound, the fold change (vs vehicle control, protein TB427.10.2290 CHAPERONE PROTEIN DNAJ, PUTATIVE) was 0.96, the fold change (vs vehicle control, protein TB427.10.8190 T-COMPLEX PROTEIN 1, THETA SUBUNIT, PUTATIVE) was 0.91 and the fold change (vs vehicle control, protein TB927.10.2100 […] 1-ALPHA) was 0.99. For the same compound, the fold change (vs vehicle control, protein TB927.10.540 ATP-DEPENDENT DEAD/H RNA HELICASE, PUTATIVE) was 0.95, the fold change (vs vehicle control, protein TB927.2.4930 ESTERASE, PUTATIVE) was 0.94 and the fold change (vs vehicle control, protein TB927.5.1630 HY[…], CONSERVED) was 0.99. For the same compound, the fold change (vs vehicle control, protein TB927.7.2750 PROTEIN KINASE, PUTATIVE) was 0.79 and the fold change (vs vehicle control, protein TB927.8.4330 SMALL GTP-BINDING PROTEIN RAB11) was 1.
